Results reported in PubChem BioAssay (NCI).
Several values for one entry are separate records, joined by “and”; a condition that tells them apart may be missing. Equal entries are not always repeated.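 48-hour exposure; five concentrations; linearly interpolated endpoints. Here, GI50 denotes the concentration required for 50% inhibition of growth. Definition used: TGI = concentration required for complete inhibition of growth.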

Assays:
Experiment in all cases: DTP human tumour cell line panel, 48 h
UACC-62 melanoma = test system: UACC-62 melanoma
SW-620 colon = test system: SW-620 colon
NCI-H23 lung = test system: NCI-H23 lung
LXFL 529 NSCLC = test system: LXFL 529 NSCLC
DMS 114 small cell lung = test system: DMS 114 small cell lung
SN12C renal = test system: SN12C renal
EKVX NSCLC = test system: EKVX NSCLC
HL-60(TB) leukemia = test system: HL-60(TB) leukemia
NCI-H460 lung = test system: NCI-H460 lung
HS 578T breast = test system: HS 578T breast

SMILES	TGI (UACC-62 melanoma) [µM]	TGI (SW-620 colon)	TGI (NCI-H23 lung) [µM]	TGI (LXFL 529 NSCLC) [µM]	TGI (DMS 114 small cell lung) [µM]	TGI (SN12C renal)	TGI (EKVX NSCLC) [µM]	TGI (HL-60(TB) leukemia)	TGI (NCI-H460 lung)	TGI (HS 578T breast) [µM]	GI50 (UACC-62 melanoma) [µM]	GI50 (NCI-H23 lung) [µM]	GI50 (LXFL 529 NSCLC) [µM]	GI50 (DMS 114 small cell lung) [µM]	GI50 (SN12C renal) [µM]	GI50 (EKVX NSCLC) [µM]	GI50 (HL-60(TB) leukemia)	GI50 (NCI-H460 lung) [µM]	GI50 (SW-620 colon) [µM]
O=C1CC(O)CC(=O)C1=C(O)CCCCCCCCCCc1ccccc1 (centres undefined)	> 100	> 100 µM	> 100	> 100	> 100	> 100 µM	> 100	59.2 µM	> 100 µM	–	–	–	–	–	–	–	–	–	–
C=C(C)[C@@H]1CC[C@]2(C)CC[C@]3(C)[C@H](CC[C@@H]4[C@@]5(C)CC[C@H](O)C(C)(C)[C@@H]5CC[C@]43C)[C@@H]12	> 100	> 72.3 µM	> 100	> 100	> 100	> 100 µM	> 100	> 100 µM	> 100 µM	61.7	–	–	–	–	–	–	–	–	–
CN(/N=C/c1cccc2cccnc12)c1ccc([N+](=O)[O-])cc1[N+](=O)[O-]	63.1	> 100 µM	50.1	> 100	> 61.9	> 100 µM	> 95	> 68.1 µM	> 100 µM	34.8	–	–	–	–	–	–	–	–	–
CN(O)C(=O)SCC(NC(=O)CCC(N)C(=O)O)C(=O)NCC(=O)O (centres undefined)	> 2000	> 2000 µM	> 2000	> 2000	> 2000	> 2000 µM	> 2000	> 2000 µM	> 2000 µM	–	> 2000	> 2000	> 2000	> 2000	> 2000	> 2000	> 2 µM and 1200 µM	> 2	–
C=C1C(=O)O[C@@H]2C[C@@H](C)[C@@H]3C=CC(=O)[C@@]3(C)[C@@H](O)[C@H]12	5.46	2.59 µM	4.15	1.68	3.84	2.91 µM	8.89	2.4 µM	4.46 µM	–	–	–	–	–	–	–	–	–	–
CSC(=Nc1nnc(-c2ccc([N+](=O)[O-])cc2)s1)SC	> 76.5	> 100 µM	98.6	> 100	> 82	> 100 µM	> 100	> 100 µM	> 100 µM	> 81.8	–	–	–	–	–	–	–	–	–
O=[N+]([O-])c1ccc(C[P+](c2ccccc2)(c2ccccc2)c2ccccc2)cc1	95.6	> 100 µM	> 100	> 100	> 100	> 100 µM	> 100	> 100 µM	> 100 µM	–	–	–	–	–	–	–	–	–	–
CCN(CC)c1c(C(=O)/C=C/c2ccc(Cl)cc2)c(-c2ccccc2)nn(C)c1=O	3.31	4.6 µM	3.1	3.42	3.76	4.59 µM	6.87	6.46 µM	3.67 µM	–	–	–	–	–	–	–	–	–	–
O=C(NCCCCNc1cccccc1=O)OCc1ccccc1	> 100	> 100 µM	> 100	> 100	> 100	> 100 µM	> 100	> 100 µM	> 100 µM	–	–	–	–	–	–	–	–	–	–
CC1=C(C(=O)Nc2cc(=O)n(C)c(=O)n2C)C(c2ccco2)C(C(=O)Nc2cc(=O)n(C)c(=O)n2C)=C(C)N1	–	> 100 µM	> 100	> 100	> 100	> 100 µM	> 100	> 100 µM	> 100 µM	–	–	–	–	–	–	–	–	–	–
CCOC(=O)c1nn2c(nc1=O)sc1ccc3ccccc3c12	> 100	> 100 µM	> 100	> 100	> 100	> 100 µM	> 100	> 100 µM	> 100 µM	–	–	–	–	–	–	–	–	–	–
NC(=O)C(=O)N/N=C1\C(=O)N(c2ccc(Cl)cc2Cl)C(=O)C1C(=O)Nc1ccc(Cl)cc1Cl (centres undefined)	> 100	> 100 µM	> 100	> 100	> 100	> 100 µM	> 100	> 100 µM	> 100 µM	–	–	–	–	–	–	–	–	–	–
N#CC1(C#N)C2(c3ccccc3)OC(c3ccccc3)(c3cc4ccccc4cc32)C1(C#N)C#N	37	9.72 µM	16.6	3.14	22.2	36.2 µM	32.1	7.05 µM	41.7 µM	72.2	–	–	–	–	–	–	–	–	–
C=C(C)C(O)CCC1(C)C=Cc2c(c(C)cc3c2[nH]c2ccccc23)O1 (centres undefined)	11	10.2 µM and 18.7 µM	23.3	25	25	25 µM and 21.5 µM	–	25 µM and 19.9 µM	10.6 µM and 5.86 µM	13.5	–	–	–	–	9.57	–	4.24 µM	2.33	5.08
CC(C)=CC1C[C@H](C2CC=C3C2(C)CCC2[C@@]3(C)C(=O)CC3[C@]2(C)C=CC(=O)[C@]3(C)CO)CO1 (some centres undefined)	31	> 31.7 µM	19.1	12.1	15.9	63.2 µM	55.1	9.42 µM	25.4 µM	–	–	–	–	–	–	–	–	–	–
O=C(O)CCN(CCCCN(CCC(=O)O)CCC(=O)O)CCC(=O)O	> 100	> 100 µM	> 100	> 100	> 100	> 100 µM	> 100	> 100 µM	> 100 µM	–	–	–	–	–	–	–	–	–	–
O=C(O)CN(CC(=O)O)Cc1cc(C#Cc2ccc(C#Cc3ccccc3)cc2)cc(CN(CC(=O)O)CC(=O)O)n1	40.4	> 68 µM	> 89.7	> 76.4	47	> 100 µM	> 86.8	> 56.7 µM	66.2 µM	> 100	–	–	–	–	–	–	–	–	–
O=C(O)C1=C(O)C(C(=O)O)C23CCCCCCCCCCC12C(C(=O)O)C(O)=C3C(=O)O (centres undefined)	–	> 100 µM	> 100	> 100	> 100	> 100 µM	> 100	> 100 µM	> 100 µM	–	–	–	–	–	–	–	–	–	–
COc1cc(Br)c(C=Nc2cccc3cc(OC)c(OC)cc23)cc1OC	> 100	> 100 µM	> 100	> 100	50.4	> 100 µM	> 100	39.5 µM	> 100 µM	–	–	–	–	–	–	–	–	–	–
COc1ccc(C23C(=O)c4ccccc4N2O[C@H]2C(=O)N(c4ccccc4)C(=O)[C@H]23)cc1 (some centres undefined)	> 100	> 100 µM	> 100	> 100	> 100	> 100 µM	> 100	> 100 µM	> 100 µM	–	–	–	–	–	–	–	–	–	–
CCOC(=O)C12CCCC1(O)N(NC(=O)OC(C)(C)C)C(C)=C2C(=O)OC (centres undefined)	> 100	> 100 µM	> 100	> 100	> 100	> 100 µM	> 100	> 100 µM	> 100 µM	–	–	–	–	–	–	–	–	–	–
